Test results taken from PubChem BioAssay (NCI).
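Step 1: Grow cells in 96-well plates. Step 2: Expose to compound for 48 hours at 5 concentrations. Step 3: Interpolate endpoints linearly; if unreached, use highest concentration. Definition used: TGI = concentration required for complete inhibition of growth.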

How the values were obtained:
Assay in all cases: DTP human tumour cell line panel, 48 h
786-0 renal = test system: 786-0 renal
EKVX NSCLC = test system: EKVX NSCLC
HT29 colon = test system: HT29 colon
KM12 colon = test system: KM12 colon
LOX IMVI melanoma = test system: LOX IMVI melanoma
MALME-3M melanoma = test system: MALME-3M melanoma
MOLT-4 leukemia = test system: MOLT-4 leukemia
NCI-H522 lung = test system: NCI-H522 lung
PC-3 prostate = test system: PC-3 prostate
RXF 393 renal = test system: RXF 393 renal
SF-539 CNS = test system: SF-539 CNS
SK-MEL-28 melanoma = test system: SK-MEL-28 melanoma
SK-MEL-5 melanoma = test system: SK-MEL-5 melanoma
SW-620 colon = test system: SW-620 colon
T-47D breast = test system: T-47D breast
TK-10 renal = test system: TK-10 renal
UO-31 renal = test system: UO-31 renal

Row | SMILES | TGI (786-0 renal) [µM] | TGI (EKVX NSCLC) [µM] | TGI (HT29 colon) [µM] | TGI (KM12 colon) [µM] | TGI (LOX IMVI melanoma) [µM] | TGI (MALME-3M melanoma) [µM] | TGI (MOLT-4 leukemia) [µM] | TGI (NCI-H522 lung) [µM] | TGI (PC-3 prostate) [µM] | TGI (RXF 393 renal) [µM] | TGI (SF-539 CNS) [µM] | TGI (SK-MEL-28 melanoma) [µM] | TGI (SK-MEL-5 melanoma) [µM] | TGI (SW-620 colon) [µM] | TGI (T-47D breast) [µM] | TGI (TK-10 renal) [µM] | TGI (UO-31 renal) [µM]
1 | CSc1c(C#N)c(N)n(-c2ccc(C)cc2)c(=O)c1C#N | > 100 | > 100 | > 100 | > 100 | > 100 | > 100 | > 100 | > 100 | > 100 | > 100 | > 100 | > 100 | > 100 | > 100 | > 100 | > 100 | > 100
2 | CCOC(CNCCC(=O)OC)OCC | > 10 | > 10 | > 10 | > 10 | > 10 | > 10 | > 10 | > 10 | > 10 | > 10 | > 10 | > 10 | > 10 | > 10 | > 10 | > 10 | > 10
3 | c1csc(-c2ccc(-c3cccs3)c3nsnc23)c1 | > 54 | > 100 | > 100 | 22.2 | > 61.9 | > 55.8 | 30.3 | > 100 | > 100 | > 64.7 | > 51 | > 54.2 | > 55.5 | > 50 | 1.8 | > 100 | > 100
4 | CC[n+]1[b-](C(C)(C)C)n(/N=C/C(C)(C)C)[b-](C(C)(C)C)[n+]1CC | > 100 | > 100 | > 100 | > 100 | > 100 | > 100 | > 100 | > 100 | > 100 | > 100 | > 100 | > 100 | > 100 | > 100 | > 100 | > 100 | > 100
5 | C[C@@H](Cl)[C@H]1CCCN(Cc2ccc(Br)cc2)C1 | > 12.5 | > 12.5 | > 12.5 | > 12.5 | > 12.5 | > 12.5 | > 12.5 | > 12.5 | > 12.5 | > 12.5 | > 12.5 | > 12.5 | > 12.5 | > 12.5 | > 12.5 | > 12.5 | > 12.5
6 | S=c1[nH]c2ccc(Br)cc2c(=S)s1 | > 100 | 91.3 | > 100 | > 100 | > 100 | > 100 | > 100 | 77.7 | 49.8 | > 100 | > 100 | > 100 | 37.8 | > 100 | 73.9 | 84.5 | 53.5
7 | COc1cc2nc(-c3cccs3)oc(=O)c2cc1OC | > 100 | > 100 | > 100 | > 100 | > 100 | > 100 | > 100 | > 100 | > 100 | > 100 | > 100 | > 100 | > 100 | > 100 | > 100 | > 100 | > 100
8 | COC(C)(C)[C@@H](O)[C@H]1C[C@H](C)[C@@]2(CC[C@]3(C)[C@@H]2CC[C@@H]2[C@@]4(C)CC[C@@H](OC(C)=O)C(C)(C)[C@@H]4C[C@@H](OC4OC(COC(C)=O)C(O)C(O)C4O)[C@]23C)O1 (stereo partly specified) | 18.7 | 19.5 | 4.07 | 3.62 | 14.9 | 23.4 | 10.7 | 17.4 | 8.1 | 11.8 | 22.1 | 20.4 | 15.1 | 20.2 | 15.1 | 24.6 | 15.5
